Measurements taken from PubChem BioAssay AID1963968 (Molecular Pharmacology Branch, DTP, NCI, 2024).

System: 945468-187-T-J3-PDC spheroids with HUVEC/MSC, viability
Test: Anticancer human tumor 945468-187-T-J3-PDC patient-derived rectal carcinoma cell line growth inhibition [PI3K]
Conditions: for IC50: curve of first compound; for viability, T/C: stronger effect = lower value
In short: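 Tumor cells were combined with HUVEC and MSCs into spheroids, then dosed with PI3K-inhibitor combinations over half-log ranges capped near clinical Cmax or 10 microM.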

[1] = second compound 0.00316 µM, first compound 0.000316 µM
[2] = second compound 0.00316 µM, first compound 0.001 µM
[3] = second compound 0.00316 µM, first compound 0.00316 µM
[4] = second compound 0.00316 µM, first compound 0.01 µM
[5] = second compound 0.00316 µM, first compound 0.0316 µM
[6] = second compound 0.00316 µM, first compound 0.1 µM
[7] = second compound 0.01 µM, first compound 0.000316 µM
[8] = second compound 0.01 µM, first compound 0.001 µM
[9] = second compound 0.01 µM, first compound 0.00316 µM
[10] = second compound 0.01 µM, first compound 0.01 µM
[11] = second compound 0.01 µM, first compound 0.0316 µM
[12] = second compound 0.01 µM, first compound 0.1 µM
[13] = second compound 0.0316 µM, first compound 0.000316 µM
[14] = second compound 0.0316 µM, first compound 0.001 µM
[15] = second compound 0.0316 µM, first compound 0.00316 µM
[16] = second compound 0.0316 µM, first compound 0.01 µM
[17] = second compound 0.0316 µM, first compound 0.0316 µM
[18] = second compound 0.0316 µM, first compound 0.1 µM
[19] = second compound 0.1 µM, first compound 0.000316 µM
[20] = second compound 0.1 µM, first compound 0.001 µM
[21] = second compound 0.1 µM, first compound 0.00316 µM
[22] = second compound 0.1 µM, first compound 0.01 µM
[23] = second compound 0.1 µM, first compound 0.0316 µM
[24] = second compound 0.1 µM, first compound 0.1 µM
[25] = second compound 0.316 µM, first compound 0.000316 µM
[26] = second compound 0.316 µM, first compound 0.001 µM
[27] = second compound 0.316 µM, first compound 0.00316 µM
[28] = second compound 0.316 µM, first compound 0.01 µM
[29] = second compound 0.316 µM, first compound 0.0316 µM
[30] = second compound 0.316 µM, first compound 0.1 µM
[31] = second compound 1 µM, first compound 0.000316 µM
[32] = second compound 1 µM, first compound 0.001 µM
[33] = second compound 1 µM, first compound 0.00316 µM
[34] = second compound 1 µM, first compound 0.01 µM
[35] = second compound 1 µM, first compound 0.0316 µM
[36] = second compound 1 µM, first compound 0.1 µM
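Also: spheroids exposed to agents for 7 days before viability read.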
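For viability, T/C in this document: 100% = DMSO vehicle control viability.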

`CC(=O)c1c(C)c2cnc(Nc3ccc(N4CCNCC4)cn3)nc2n(C2CCCC2)c1=O` + COc1c(OCCCN2CCOCC2)ccc2c3n(c(=NC(=O)c4cnc(N)nc4)nc12)CCN3 showed an IC50 (second compound 0.00316 µM) of over 100 nM, an IC50 (second compound 0.01 µM) of over 100 nM and an IC50 (second compound 0.0316 µM) of over 100 nM. For the same compound, the IC50 (second compound 0.1 µM) was under 0.316 nM, the IC50 (second compound 0.316 µM) was under 0.316 nM and the IC50 (second compound 1 µM) was under 0.316 nM. It also gave a viability, T/C [1] of 99%, a viability, T/C [2] of 106% and a viability, T/C [3] of 118%. For the same compound, the viability, T/C [4] was 92.3%, the viability, T/C [5] was 103% and the viability, T/C [6] was 101%. It also gave a viability, T/C [7] of 92.4%, a viability, T/C [8] of 87.1% and a viability, T/C [9] of 90.3%. For the same compound, the viability, T/C [10] was 97.5%, the viability, T/C [11] was 95.7% and the viability, T/C [12] was 104%. The viability, T/C [13] was 82.9%, the viability, T/C [14] was 90.3% and the viability, T/C [15] was 89.9%. The viability, T/C [16] was 85.2%, the viability, T/C [17] was 89% and the viability, T/C [18] was 74.8%. For the same compound, the viability, T/C [19] was 43.1%, the viability, T/C [20] was 48.6% and the viability, T/C [21] was 48.7%. For the same compound, the viability, T/C [22] was 37.6%, the viability, T/C [23] was 37.9% and the viability, T/C [24] was 32.5%. It also gave a viability, T/C [25] of 23%, a viability, T/C [26] of 20.6% and a viability, T/C [27] of 20%. It also gave a viability, T/C [28] of 19.2%, a viability, T/C [29] of 19.6% and a viability, T/C [30] of 17.6%. For the same compound, the viability, T/C [31] was 16%, the viability, T/C [32] was 17.7% and the viability, T/C [33] was 16.7%. The viability, T/C [34] was 16.2%, the viability, T/C [35] was 13.6% and the viability, T/C [36] was 14.1%.
`CC(C)n1nc(-c2ccc3oc(N)nc3c2)c2c(N)ncnc21` + COc1c(OCCCN2CCOCC2)ccc2c3n(c(=NC(=O)c4cnc(N)nc4)nc12)CCN3 was tested, and the IC50 (second compound 0.00316 µM) was 76.1 nM, the IC50 (second compound 0.01 µM) was 62.6 nM and the IC50 (second compound 0.0316 µM) was 25.6 nM. The IC50 (second compound 0.1 µM) was under 0.316 nM, the IC50 (second compound 0.316 µM) was under 0.316 nM and the IC50 (second compound 1 µM) was under 0.316 nM. The viability, T/C [1] was 104%, the viability, T/C [2] was 85.7% and the viability, T/C [3] was 95.1%. The viability, T/C [4] was 78.7%, the viability, T/C [5] was 92.8% and the viability, T/C [6] was 37.2%. It also gave a viability, T/C [7] of 97.2%, a viability, T/C [8] of 81.2% and a viability, T/C [9] of 93.9%. For the same compound, the viability, T/C [10] was 86.2%, the viability, T/C [11] was 90.4% and the viability, T/C [12] was 22.7%. For the same compound, the viability, T/C [13] was 88.7%, the viability, T/C [14] was 77.2% and the viability, T/C [15] was 85%. It also gave a viability, T/C [16] of 78.4%, a viability, T/C [17] of 43.6% and a viability, T/C [18] of 17.1%. For the same compound, the viability, T/C [19] was 46%, the viability, T/C [20] was 34% and the viability, T/C [21] was 33.9%. For the same compound, the viability, T/C [22] was 26.2%, the viability, T/C [23] was 20.2% and the viability, T/C [24] was 13.6%. For the same compound, the viability, T/C [25] was 20.6%, the viability, T/C [26] was 21.3% and the viability, T/C [27] was 21.6%. It also gave a viability, T/C [28] of 17.6%, a viability, T/C [29] of 16.6% and a viability, T/C [30] of 13.7%. The viability, T/C [31] was 18.5%, the viability, T/C [32] was 15.9% and the viability, T/C [33] was 14.1%. It also gave a viability, T/C [34] of 13.2%, a viability, T/C [35] of 12.6% and a viability, T/C [36] of 10.5%.
